Drawing on PubChem BioAssay AID328 (DTP/NCI, 2004), this text covers T/C for 15 compounds.

The structures appear in SMILES notation. Toxic doses and inconclusive results are not listed.

The assay relates to BDF1 mice, P388 leukemia ip, median survival T/C. Description: NCI In Vivo Anticancer Drug Screen. Data for tumor model P388 Leukemia (intraperitoneal) in B6D2F1 (BDF1) mice. The settings on record: endpoint: median survival time, higher = longer survival. The procedure, abridged: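 Mice carrying the transplantable tumour receive compound or vehicle. Survival is followed in each arm, and the treated measure is divided by the vehicle measure.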

[1] abbreviates: dose: 50.0 mg/kg/injection, schedule: Q01DX009 (ip), vehicle: saline with Tween-80.
[2] abbreviates: dose: 100.0 mg/kg/injection, schedule: Q01DX009 (ip), vehicle: saline with Tween-80.
Where [3] appears, read: dose: 200.0 mg/kg/injection, schedule: Q01DX009 (ip), vehicle: saline with Tween-80.
[4] abbreviates: dose: 100.0 mg/kg/injection, schedule: Q04DX003 (ip), vehicle: saline with Tween-80.
Setting [5] is: dose: 200.0 mg/kg/injection, schedule: Q04DX003 (ip), vehicle: saline with Tween-80.
The mark [6] stands for this setting: dose: 400.0 mg/kg/injection, schedule: Q01DX009 (ip), vehicle: saline with Tween-80.
Setting [7] is: dose: 400.0 mg/kg/injection, schedule: Q04DX003 (ip), vehicle: saline with Tween-80.
[8] abbreviates: dose: 50.0 mg/kg/injection, schedule: Q01DX009 (ip), vehicle: saline.
Where [9] appears, read: dose: 100.0 mg/kg/injection, schedule: Q04DX003 (ip), vehicle: saline.
The mark [10] stands for this setting: dose: 200.0 mg/kg/injection, schedule: Q04DX003 (ip), vehicle: saline.

As to `CCN(CCNc1ccc(CO)c2sc3ccccc3c(=O)c12)CC(C)(C)O`, the T/C (dose: 50.0 mg/kg/injection, schedule: Q04DX003 (ip), vehicle: Klucel (hydroxypropylcellulose) (HPC)) is 102 % of control; the T/C (dose: 100.0 mg/kg/injection, schedule: Q04DX003 (ip), vehicle: Klucel (hydroxypropylcellulose) (HPC)) is 100 % of control; the T/C (dose: 200.0 mg/kg/injection, schedule: Q04DX003 (ip), vehicle: Klucel (hydroxypropylcellulose) (HPC)) was 106 % of control.
For the compound `C=CCCC/C(C)=N/NS(=O)(=O)c1ccc(C)cc1`, the T/C was 109 % of control under setting [1], 109 % of control under setting [2] and 95 % of control under setting [3].
Consider `CCOC1OCN(c2cccc(Cl)c2)CC1(C)C` (centres undefined), for which the T/C by setting is: under setting [1], 98 % of control; under setting [2], 112 % of control; under setting [3], 114 % of control.
For `NC(N)=Nc1ccc(C(=O)O)cc1`, the T/C is, setting by setting: (dose: 50.0 mg/kg/injection, schedule: Q04DX003 (ip), vehicle: saline with Tween-80) 104 % of control; under setting [4], 100 % of control; under setting [5], 100 % of control.
`CN(Cc1ccco1)NC(=O)C(=O)NCc1ccco1`: the T/C was 95 % of control (dose: 12.5 mg/kg/injection, schedule: Q01DX005 (ip), vehicle: saline with Tween-80); 95 % of control (dose: 25.0 mg/kg/injection, schedule: Q01DX005 (ip), vehicle: saline with Tween-80); 88 % of control (dose: 50.0 mg/kg/injection, schedule: Q01DX005 (ip), vehicle: saline with Tween-80).
On to `Cc1cccc(NC(=O)N(CCCl)N=O)c1`, for which the T/C runs as follows: (dose: 0.4 mg/kg/injection, schedule: Q01DX009 (ip), vehicle: saline) 157 % of control; (dose: 38.0 micrograms/kg/injection, schedule: Q04DX003 (ip), vehicle: saline) 100 % of control; (dose: 75.0 micrograms/kg/injection, schedule: Q04DX003 (ip), vehicle: saline) 109 % of control; (dose: 150.0 micrograms/kg/injection, schedule: Q04DX003 (ip), vehicle: saline) 104 % of control; (dose: 300.0 micrograms/kg/injection, schedule: Q04DX003 (ip), vehicle: saline) 109 % of control.
Turning to `CC(C)=NNC(=O)C1CCN1Cc1ccccc1` (centres undefined), the T/C (dose: 50.0 mg/kg/injection, schedule: Q01DX001 (ip), vehicle: saline) is 102 % of control; the T/C (dose: 100.0 mg/kg/injection, schedule: Q01DX001 (ip), vehicle: saline) was 98 % of control; the T/C (dose: 200.0 mg/kg/injection, schedule: Q01DX001 (ip), vehicle: saline) is 93 % of control; the T/C (dose: 400.0 mg/kg/injection, schedule: Q01DX001 (ip), vehicle: saline) is 102 % of control.
Turning to `COc1ccc(OC)c(C(C)(O)CC(=O)O)c1` (centres undefined), the T/C runs as follows: under setting [1], 89 % of control; under setting [2], 107 % of control; under setting [4], 112 % of control; under setting [3], 105 % of control; under setting [5], 103 % of control; under setting [6], 90 % of control. For the same compound, the T/C under setting [7] is 117 % of control.
For `CCCCCCCCCCCCCCCC[N+]1(C)CCN(SN2CC[N+](C)(CCCCCCCCCCCCCCCC)CC2)CC1`, the T/C by setting is: under setting [8], 100 % of control; (dose: 100.0 mg/kg/injection, schedule: Q01DX009 (ip), vehicle: saline) 103 % of control; under setting [9], 104 % of control; under setting [10], 104 % of control.
As for `CCSc1ncc(Br)c(Sc2nc(N)nc3nc[nH]c23)n1`, under setting [4], the T/C was 86 % of control.
`Cc1sc(C)c2c1C[Se]Cc1c(C)sc(C)c1C[Se]C2`: the T/C reads like this: (dose: 12.5 mg/kg/injection, schedule: Q01DX001 (ip), vehicle: saline with Tween-80) 95 % of control; (dose: 25.0 mg/kg/injection, schedule: Q01DX001 (ip), vehicle: saline with Tween-80) 107 % of control; (dose: 50.0 mg/kg/injection, schedule: Q01DX001 (ip), vehicle: saline with Tween-80) 118 % of control.
Consider `CC1(C)C(=O)C2(C(=O)O)CCC1C2` (centres undefined), for which the T/C is 100 % of control under setting [2]; 95 % of control under setting [4]; 95 % of control under setting [3]; 109 % of control under setting [5]; 100 % of control under setting [6]; 100 % of control under setting [7].
With `COC(=O)C12OCC34C(CC5=C(C)C(=O)C(O)=CC5(C)C3C(O)C1O)OC(=O)C(OC(=O)/C=C(\C)C(C)C)C24` (centres undefined), the T/C (dose: 31.0 micrograms/kg/injection, schedule: Q01DX009 (ip), vehicle: saline + alcohol) was 120 % of control; the T/C (dose: 62.0 micrograms/kg/injection, schedule: Q01DX009 (ip), vehicle: saline + alcohol) is 115 % of control; the T/C (dose: 250.0 micrograms/kg/injection, schedule: Q01DX009 (ip), vehicle: saline + alcohol) is 100 % of control; the T/C (dose: 500.0 micrograms/kg/injection, schedule: Q01DX009 (ip), vehicle: saline + alcohol) is 105 % of control; the T/C (dose: 1000.0 micrograms/kg/injection, schedule: Q01DX009 (ip), vehicle: saline + alcohol) was 120 % of control; the T/C (dose: 2000.0 micrograms/kg/injection, schedule: Q01DX009 (ip), vehicle: saline + alcohol) was 110 % of control.
In the case of `N=c1cc(-c2ccc(Cl)cc2)ss1`, the T/C under setting [8] was 117 % of control; the T/C (dose: 50.0 mg/kg/injection, schedule: Q04DX003 (ip), vehicle: saline) is 97 % of control; the T/C under setting [9] is 105 % of control; the T/C under setting [10] was 108 % of control.
Take `Clc1ccc(C2c3ccccc3C[n+]3ccccc32)cc1` (centres undefined): the T/C (dose: 8.75 mg/kg/injection, schedule: Q01DX009 (ip), vehicle: Klucel (hydroxypropylcellulose) (HPC)) is 113 % of control; the T/C (dose: 12.5 mg/kg/injection, schedule: Q04DX003 (ip), vehicle: Klucel (hydroxypropylcellulose) (HPC)) is 95 % of control; the T/C (dose: 17.5 mg/kg/injection, schedule: Q01DX009 (ip), vehicle: Klucel (hydroxypropylcellulose) (HPC)) is 109 % of control; the T/C (dose: 25.0 mg/kg/injection, schedule: Q04DX003 (ip), vehicle: Klucel (hydroxypropylcellulose) (HPC)) is 91 % of control.
